Data: patent publication US12234238B2, “Antimicrobial compounds and methods of making and using the same” (BIOVERSYS AG, priority 2017, dated 2025)
Read-outs that look alike come from different tables or passages of the source.

Tests used:
[1] = system: Staphylococcus aureus (S. aureus) 11540 strain; assay: standard microdilution assay to determine minimum inhibitory concentrations (MICs), S. aureus; format: cell-based
Experimental: (§1) The in vitro activity of the compounds of the present disclosure can be determined. Antimicrobial testing is typically performed to determine the minimum inhibitory concentration (MIC). Minimum inhibitory concentrations (MICs) are determined by the microdilution method in a final volume of 100 μl according to protocols outlined by The Clinical and Laboratory Standards Institute (CLSI). Performance standards for reference strains are assessed within the same experimental design to maintain quality control. See, for example, Clinical Laboratory Standards Institute: Methods for dilution antimicrobial susceptibility tests for bacteria that grow aerobically M7-A8. Approved Standard-Eighth Edition. Wayne, PA: CLSI; December 2008: and Clinical Laboratory Standards Institute: Performance Standards for Antimicrobial Susceptibility Testing M100-S20; Approved Standard-Twentieth Edition. Wayne, PA: CLSI; June 2010. The compounds of the present disclosure were tested for antimicrobial activity. The Compounds 1-122 were run against Eschericia coli (E. coli) strain ATCC25922 and against Staphylococcus aureus (S. aureus) 11540 strain using a standard microdilution assay to determine minimum inhibitory concentrations (MICs). […] It will be recognized by one skilled in the art that the compounds can be assessed against other bacterial organisms and that the presentation of data for activity against Eschericia coli and Staphylococcus aureus are illustrative and in no way is intended to limit the scope of the present disclosure. The compounds of the present disclosure can be assayed against a range of other microorganisms depending upon the performance activity desired to be gathered. Furthermore, the “+” and “−” representation and the selection of a cutoff value of 16 micrograms/mL is also illustrative and in no way is intended to limit the scope of the present disclosure.

[2] = system: Eschericia coli (E. coli) strain ATCC25922; assay: standard microdilution assay to determine minimum inhibitory concentrations (MICs), E. coli; format: cell-based; details: Escherichia coli
Experimental: as §1

[3] = Rat infusion study: clinical signs and IV plasma pharmacokinetics across infusion lengths; format: in vivo; details: male Sprague-Dawley rats; for Clinical Signs: 4 mg/kg jugular venous infusion, listed as Compound No. 34, 4 mg/kg; for AUC(0-inf) / Cmax / half-life: male, Sprague-Dawley, rat, plasma, iv, 4 mg/kg, 4 mg/kg IV
Text: Many pyrrolocytosines, including Compound No. 34, share an acute clinical syndrome, which manifests in as a Cmax-driven hemodynamic effect and is associated with immediate clinical signs such as labored breathing. Cmax is the peak concentration a molecule reaches in the plasma, in this case directly following intravenous administration, and is expressed generally in micrograms/milliliter. The syndrome is dose-dependent, meaning that the higher the amount of drug given, the more severe the effects. This is generally considered the limiting toxicity for the effected compounds of this class. Importantly, the efficacy for the pyrrolocytosines, including Compound No. 34, is not driven by the Cmax but rather by the AUC (Area-Under-the-plasma-drug-concentration-time-Curve), which is an expression of the total body exposure to the drug and is expressed generally in micrograms*hour/milliliter. In rat studies with several pyrrolocytosines, including Compound No. 34, it has been shown that increasing the length, or duration, of the intravenous administration effectively modulates or eliminates the clinical syndrome, depresses the concentration maximum, results in a short distribution half-life but still affords drug exposures necessary for efficacy.
As an example, a study conducted by PharmOptima under study number 2017-164 with Compound No. 34, compared the clinical signs and plasma drug concentration data across several infusion lengths: 10-minutes, which is the screening length at which the acute syndrome is observed, 1-hour, 2-hour, 3-hour and 24-hour. A total of 15 male Sprague-Dawley rats (275-300 grams) were used in the study, divided evenly across the 5 dosing regimens. The route of drug administration was via jugular venous infusion, using a syringe infusion pump. Compound No. 34 was formulated in phosphate-buffered mannitol, with a starting pH=6.5.
There was a clear decrease in Cmax as infusion length was increased. The intermediate dosing groups still achieved significant AUC, or drug exposures for efficacy, and particularly with the 3 h infusion itis clear that the dose can be increased to move the AUC higher while not approaching the Cmax associated with the severe end of the acute tolerability. The 24 h infusion is particularly compelling. It indicates the concentration can be titrated to achieve steady-state drug levels for efficacy while remaining well below the Cmax associated with clinical signs. […] In the end, this translates into a generous therapeutic window.

| Compound | MIC [1] [µg/mL] | MIC [2] [µg/mL] | further results |
| --- | --- | --- | --- |
| C[C@H](N)CCCc1cc(Cl)c(F)c(-c2cc3cn(-c4ccc([C@@H]5CCC[C@@H](CCSC(=N)N)N5CCC5CC5)cc4)c(=O)nc3[nH]2)c1 [Compound 103] | ≤ 16 | ≤ 16 |  |
| CCc1c(F)c(CCC[C@H](C)N)cc(-c2cc3cn(-c4ccc([C@@H]5CCC[C@@H](CCSC(=N)N)N5)cc4)c(=O)nc3[nH]2)c1F [Compound 104] | ≤ 16 | ≤ 16 |  |
| C[C@H](CO)CN1[C@H](CCSC(=N)N)CCC[C@H]1c1ccc(-n2cc3cc(-c4cc(CCC[C@H](C)N)cc(Cl)c4F)[nH]c3nc2=O)cc1 [Compound 105] | ≤ 16 | ≤ 16 |  |
| C[C@H](N)CCCc1cc(Cl)c(F)c(-c2cc3cn(-c4ccc([C@@H]5CCC(O)[C@@H](CCSC(=N)N)N5C)cc4)c(=O)nc3[nH]2)c1 (some centres unmarked) [Compound 106] | ≤ 16 | ≤ 16 |  |
| C[C@H](N)CCCc1cc(Cl)c(F)c(-c2cc3cn(-c4ccc([C@H]5C[C@H](CCSC(=N)N)CCN5C)cc4)c(=O)nc3[nH]2)c1 [Compound 111] | ≤ 16 | ≤ 16 |  |
| C[C@H](N)CCCc1cc(Cl)c(F)c(-c2cc3cn(-c4ccc([C@H]5C[C@H](CCSC(=N)N)CN5)cc4)c(=O)nc3[nH]2)c1 [Compound 114] | ≤ 16 | ≤ 16 |  |
| C[C@H](N)CCCc1cc(Cl)c(F)c(-c2cc3cn(-c4ccc([C@H]5C[C@H](CCSC(=N)N)C(=O)N5C)cc4)c(=O)nc3[nH]2)c1 [Compound 115] | ≤ 16 | > 16 |  |
| C[C@H](N)CCCc1cc(Cl)c(F)c(-c2cc3cn(-c4ccc([C@@H]5C[C@@H](CCSC(=N)N)CN5)cc4)c(=O)nc3[nH]2)c1 [Compound 116] | ≤ 16 | ≤ 16 |  |
| C[C@H](N)CCCc1cc(Cl)c(F)c(-c2cc3cn(-c4ccc([C@H]5C[C@H](CCSC(=N)N)CN5CCCF)cc4)c(=O)nc3[nH]2)c1 [Compound 117] | ≤ 16 | ≤ 16 |  |
| CCSC(=N)NCC[C@@H]1CCC[C@@H](c2ccc(-n3cc4cc(-c5cc(CCC[C@H](C)N)cc(Cl)c5F)[nH]c4nc3=O)cc2)N1 [Compound 118] | ≤ 16 | ≤ 16 |  |
| CC(C)SC(=N)NCC[C@@H]1CCC[C@@H](c2ccc(-n3cc4cc(-c5cc(CCC[C@H](C)N)cc(Cl)c5F)[nH]c4nc3=O)cc2)N1 [Compound 119] | ≤ 16 | ≤ 16 |  |
| CSC(=N)NCC[C@@H]1CCC[C@@H](c2ccc(-n3cc4cc(-c5cc(CCC[C@H](C)N)cc(Cl)c5F)[nH]c4nc3=O)cc2)N1 [Compound 120] | ≤ 16 | ≤ 16 |  |
| CSC(=N)NCC[C@@H]1CCC[C@@H](c2ccc(-n3cc4cc(-c5cc(CCC[C@H](C)N)cc(Cl)c5F)[nH]c4nc3=O)cc2F)N1 [Compound 121] | ≤ 16 | ≤ 16 |  |
| C=CCSC(=N)NCC[C@@H]1CCC[C@@H](c2ccc(-n3cc4cc(-c5cc(CCC[C@H](C)N)cc(Cl)c5F)[nH]c4nc3=O)cc2)N1 [Compound 122] | ≤ 16 | ≤ 16 |  |

Continued, in another order:

| MIC [1] [µg/mL] | MIC [2] [µg/mL] | Compound | further results |
| --- | --- | --- | --- |
| ≤ 16 | ≤ 16 | C[C@H](N)CCCc1cc(Cl)c(F)c(-c2cc3cn(-c4ccc([C@@H]5CCC[C@@H](CCSC(=N)N)N5)cc4)c(=O)nc3[nH]2)c1 [Compound 34] | Clinical Signs ([3]; 10-min infusion): significant labored breathing; Clinical Signs ([3]; 1 h, 2 h and 3 h infusion groups): minor signs of chewing and licking; Clinical Signs ([3]; 24 h infusion): no clinical signs and none; AUC(0-inf) ([3]; 10-min infusion): 22000 ng·h/mL; Cmax ([3]; 10-min infusion): 23600 ng/mL; AUC(0-inf) ([3]; 1 h infusion): 14400 ng·h/mL; Cmax ([3]; 1 h infusion): 8890 ng/mL; AUC(0-inf) ([3]; 2 h infusion): 14400 ng·h/mL; Cmax ([3]; 2 h infusion): 8120 ng/mL; AUC(0-inf) ([3]; 3 h infusion): 9150 ng·h/mL; Cmax ([3]; 3 h infusion): 3760 ng/mL; AUC(0-inf) ([3]; 24 h infusion): 11000 ng·h/mL; Cmax ([3]; 24 h infusion): 560 ng/mL; half-life ([3]; 10-min infusion, read-out: T½ (h)-alpha (converted)): 1.01 h; half-life ([3]; 1 h infusion, read-out: T½ (h)-alpha (converted)): 0.91 h; half-life ([3]; 2 h infusion, read-out: T½ (h)-alpha (converted)): 1.02 h; half-life ([3]; 3 h infusion, read-out: T½ (h)-alpha (converted)): 0.99 h; half-life ([3]; 24 h infusion, read-out: T½ (h)-alpha (converted)): 1.01 h; half-life ([3]; first of two cells, infusion group(s) unclear (grid: 10-min), read-out: T½ (h)-terminal (converted)): 15.2 h; half-life ([3]; second of two cells, infusion group(s) unclear (grid: 1 h), read-out: T½ (h)-terminal (converted)): 15.2 h |
| ≤ 16 | > 16 | COCCN1[C@H](CCSC(=N)N)CCC[C@H]1c1ccc(-n2cc3cc(-c4cc(CCC[C@H](C)N)cc(Cl)c4F)[nH]c3nc2=O)cc1 [Compound 97] |  |
| ≤ 16 | ≤ 16 | C[C@H](N)CCCc1cc(Cl)c(F)c(-c2cc3cn(-c4ccc([C@@H]5CCC[C@@H](CCSC(=N)N)N5CCF)cc4)c(=O)nc3[nH]2)c1 [Compound 98] |  |
| ≤ 16 | ≤ 16 | C[C@H](N)CCCc1cc(-c2cc3cn(-c4ccc([C@@H]5CCC[C@@H](CCSC(=N)N)N5)cc4)c(=O)nc3[nH]2)cc(C2CC2)c1 [Compound 99] |  |
| ≤ 16 | ≤ 16 | C[C@H](N)CCCc1cc(-c2cc3cn(-c4ccc([C@@H]5CCC[C@@H](CCSC(=N)N)N5)cc4)c(=O)nc3[nH]2)cc(C2CCCC2)c1 [Compound 100] |  |
| ≤ 16 | ≤ 16 | C[C@@H](CO)CN1[C@H](CCSC(=N)N)CCC[C@H]1c1ccc(-n2cc3cc(-c4cc(CCC[C@H](C)N)cc(Cl)c4F)[nH]c3nc2=O)cc1 [Compound 101] |  |
| ≤ 16 | ≤ 16 | C[C@H](N)CCCc1cc(Cl)c(F)c(-c2cc3cn(-c4ccc([C@@H]5CCC[C@@H](CCSC(=N)N)N5CCC5CCOCC5)cc4)c(=O)nc3[nH]2)c1 [Compound 102] |  |
